Like-named read-outs stand apart in the source and are kept apart here.

Series [1] concerns mouse carotid artery injury model. Nature of the series: mouse carotid artery injury model, neointimal area. The series is classed as in vivo. Particulars: female B6.129 mice, high fat diet, oral 50 mg/kg resveratrol, 10 mg/kg quercetin or both, 2 weeks before and 2 weeks after injury.
Description: FIG. 9 is a bar chart showing the effects of oral administration with 50 mg/kg resveratrol (RESV), 10 mg/kg quercetin (QUER), or resveratrol plus quercetin on neointimal areas in mice subjected to the carotid artery injury procedure. Values represent means+SEM. […] Neointimal area was determined by subtracting the luminal area from the area encircled by the internal elastic lamina. Determining whether quercetin potentiates the vascular protective effects of resveratrol in vivo, utilizing a mouse carotid artery injury model. Female B6.129 mice were administered a high fat diet, in some cases mixed together with 50 mg/kg resveratrol (RESV), 10 mg/kg quercetin (QUER), or resveratrol plus quercetin, for 2 weeks. The carotid artery injury procedure was conducted and the animals were fed the high fat diet plus polyphenols for an additional two weeks. The animals were then sacrificed, and the carotid arteries were excised and assessed for neointimal areas.
The next series relates to platelets. The series can be described thus: platelet activation, tritiated serotonin release after ADP. Particulars: 3 h, 5 μM ADP. It counts as cell-based, human. The method, then:
Values represent means+/−standard error.
To determine the efficacy of these compounds in reducing platelet activation, platelets isolated from healthy, male donors were incubated with resveratrol, quercetin, or resveratrol plus quercetin. The doses were selected based on prior studies.

For the next series, the system named is platelet activation. Nature of the series: thromboxane B2 levels in mouse carotid artery injury model. The series is classed as in vivo. The settings on record: 4 weeks oral, 50 mg/kg resveratrol, 10 mg/kg quercetin or both, B6.129 mice.
Series [2] relates to macrophages. Nature of the series: LPS-stimulated macrophage activation, iNOS protein. The series is classed as cell-based.
Description: To test the efficacy of a resveratrol/quercetin combination in inhibiting the activation of macrophages, effects of polyphenol treatments either alone or in combination with quercetin were assessed in cultures of lipopolysaccharide (LPS) stimulated macrophages. Macrophage activation was determined by increases in protein levels of inducible nitric oxide synthase (iNOS) and by levels of reactive oxygen species (ROS).
In series [3] the test system is macrophages. Nature of the series: LPS-stimulated macrophage activation, nitric oxide release, isobologram. The series is classed as cell-based. The settings on record: CalcuSyn, read-out: IC50 macrophage activation, individual treatments. The method, then:
Macrophages were incubated with differing dose ratios of resveratrol:quercetin and were stimulated with LPS. Activation was assessed as increases in nitric oxide release. The IC50's for each dose ratio were calculated using CaluSyn software and were used to plot the isobologram. The line depicted above indicates the point at which additive responses are observed (C1=1). Points lying above the line indicate antagonism, whereas points below the line represent synergism.
Isobolograms for the determination of synergistic dose ratios for a resveratrol/quercetin combination. To determine the dose ratios for achieving maximal synergistic effects, activation in LPS-stimulated cells macrophages incubated with constant dose ratios of resveratrol and quercetin was measured. The IC50 for each dose ratio was calculated using CalcuSyn software, and these concentrations were used to construct an isobologram (FIG. 13). […] Briefly, CI=1 denotes additive effects, CI>1 denotes antagonism, and CI<1 indicates synergism.

For series [4], the system named is VSMC. Nature of the series: BrdU proliferation assay of VSMC with drug-eluting flats. The series is classed as cell-based. The settings on record: 48 hours elution.
Description: Bare metal flats coated with resveratrol—(FIG. 17A) or quercetin—(FIG. 17B) containing arbIBS of either a closed or an open morphology were incubated in semi-permeable transwell inserts in plates containing VSMC. The bromodeoxyuridine (BrdU) incorporation assay for cell proliferation was conducted after 48 h of drug elution. […] The polyisobutylene-polystyrene triblock copolymers coated flats containing resveratrol or quercetin were incubated in semi-permeable transwell inserts in plates containing VSMC.
The conditions of series [5]: cited from earlier work.
For series [6], the system named is VSMC. Nature of the series: VSMC proliferation (DNA synthesis, cell number). Particulars: Rattus norvegicus. The series is classed as cell-based.
Series [7] is described as follows: resveratrol release from polymer-coated flats (HPLC). It counts as physicochemical. The method, then: Polymer coated flats were incubated in medium at 37° C. for 28 d. Resveratrol concentration in the medium was assessed at 2 d intervals using high performance liquid chromatography. The data are expressed as means+/−standard error for cumulative release in micromolar concentrations (FIG. 18A) compared to a percent of total drug loaded (FIG. 18B).
Determination of resveratrol release was performed using reversed phase high performance liquid chromatography (HPLC) coupled to a 4-channel Coularray electrochemical detector run at 590, 660, 730, and 800 mV. […] Establishing biocompatibility is a critical step in the development of the stent models.

The next series relates to NFκB. The series can be described thus: NFκB activation in vascular smooth muscle cells. The series is classed as cell-based. From the text: FIG. 3 is a bar chart showing the effect of resveratrol on NFκB activation in vascular smooth muscle cells
The target in a further series is T1, ER-alpha (Homo sapiens, UniProt P03372).
T1 sequence (P03372 1-595): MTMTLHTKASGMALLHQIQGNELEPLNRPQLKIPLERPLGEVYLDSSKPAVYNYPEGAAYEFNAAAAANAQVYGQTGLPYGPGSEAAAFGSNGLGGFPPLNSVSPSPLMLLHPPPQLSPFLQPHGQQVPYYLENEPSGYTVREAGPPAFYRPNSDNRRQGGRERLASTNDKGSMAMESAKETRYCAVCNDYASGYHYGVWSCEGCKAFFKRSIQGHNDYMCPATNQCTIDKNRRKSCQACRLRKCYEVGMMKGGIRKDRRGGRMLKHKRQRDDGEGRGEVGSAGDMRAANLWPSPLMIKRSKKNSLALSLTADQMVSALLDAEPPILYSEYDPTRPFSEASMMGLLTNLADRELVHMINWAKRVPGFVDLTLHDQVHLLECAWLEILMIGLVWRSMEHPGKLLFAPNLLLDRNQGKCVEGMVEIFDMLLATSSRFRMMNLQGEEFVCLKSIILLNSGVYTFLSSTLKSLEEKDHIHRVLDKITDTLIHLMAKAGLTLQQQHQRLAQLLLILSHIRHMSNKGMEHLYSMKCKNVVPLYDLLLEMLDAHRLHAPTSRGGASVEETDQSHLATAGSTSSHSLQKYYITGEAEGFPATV
Particulars: same binding site as estradiol; cited from earlier work.

In general, IC50 refers to the concentration at which inhibition is half-maximal. As for `O=c1c(O)c(-c2ccc(O)c(O)c2)oc2cc(O)cc(O)c12` [quercetin, 2-(3,4-dihydroxyphenyl)-3,5,7-trihydroxy-4H-1-benzopyran-4-one], in series [1], the neointimal area result is on record as “no significant effect”. Also, in the series on platelets (10-15 μM quercetin), the “reduction of serotonin release” value is 40-50%. Further, in the series on platelet activation, the “reduction of plasma TXB2 levels” value is reported as 40%. Also, the “reduction of iNOS protein” value with macrophages [2] (10 μM quercetin) is reported as ~75%; in the series with macrophages [2] (15 μM quercetin), ~90%. Moreover, in the series with macrophages [3], the IC50 is 2.4 µM. The “inhibition of VSMC proliferation” value in the series with VSMC [4] (75 μg/cm^2, particulate (open) or smooth (closed) matrix) is recorded as “significantly inhibited proliferation”. Also, the solubility in water result in series [5] is on record as “practically insoluble”.
The EC50 is the concentration needed to bring the measured effect to its halfway point. `Oc1ccc(C=Cc2cc(O)cc(O)c2)cc1` [resveratrol]: the neointimal area result in [1] is listed as “dramatically reduced”. Further, the concentration giving a half-maximal response (EC50) in the series on VSMC [6] (read-out: EC50 for inhibiting DNA synthesis) is 18 µM; with VSMC [6] (read-out: EC50 for reducing numbers of cells), 25 µM. In the series on platelets (18 μM resveratrol), the “reduction of serotonin release” value is listed as ~60%. For the same compound, in the series with platelet activation, the “reduction of plasma TXB2 levels” value is given as “no significant effect”. Moreover, the “reduction of iNOS protein levels” value in the series on macrophages [2] (18 μM resveratrol) was ~25%. Also, in the series on macrophages [3], the IC50 was 3.5 µM. Further, in the series with VSMC [4] (smooth (closed) matrix, 100 μg/cm^2 loading), the “inhibition of VSMC proliferation” value is “significantly inhibited proliferation”. The “total drug loaded that had eluted” value in series [7] (at 28 days) is 5-10%. The “eluted concentration of resveratrol” value in series [7] (medium 37° C., 28 d) is reported as “low micromolar concentrations”. The “release from 100 mg/cm^2 coated flat relative to 50 mg/cm^2-coated flat” value in [7] (regardless of morphology, medium 37° C.) is listed as “approximately 4 fold”. For the same compound, the “inhibition of NFκB activation” value with NFκB is reported as “very potently”. Moreover, the binding affinity result on ER-alpha was “lower binding affinity than estradiol”.

Source of the values: patent US8992603B2, “Coated devices and method of making coated devices that reduce smooth muscle cell proliferation and platelet activity” (Nanocopoeia, Inc., priority 2007, dated 2015).
